Source: patent publication US10100341B2, “Tailored oils produced from recombinant oleaginous microorganisms” (Corbion Biotech, Inc., priority 2011, dated 2018)

Columns and labels:
[1] = system: Chlorella ellipsoidea; conditions: 30 ug/mL G418; cited from earlier work
[2] = system: Amphidinium sp.; conditions: 3 mg/ml G418; cited from earlier work
[3] = system: Cyclotella cryptica; conditions: 50% artificial seawater medium, 100 ug/ml G418; cited from earlier work
[4] = system: Navicula saprophila; conditions: artificial seawater medium, 100 ug/ml G418; cited from earlier work
[5] = system: Symbiodinium microadriacticum; conditions: 3 mg/ml G418; cited from earlier work
[6] = system: Prototheca moriformis; experiment: Growth in thiamine-free medium (thiamine auxotrophy complementation); type: cell-based; conditions: 2 μM precursor
Experimental: Thiamine prototrophy in Prototheca moriformis cells was examined using expression of exogenous THIC genes. […] To dissect the lesion responsible for thiamine auxotrophy at the biochemical level, the growth of Prototheca moriformis cells under five different regimes were examined:(1) in the presence of 2 μM thiamine hydrochloride; (2) without thiamine; (3) without thiamine, but with 2 μM hydroxyethyl thiazole (THZ); […] To observe the thiamine auxotrophy of wildtype Prototheca moriformis cells, it was necessary to first deplete cells of internal thiamine reserves. To test growth in medium without thiamine, cells were first grown to stationary phase in medium containing 2 μM thiamine and then the cells were diluted to an optical density at 750 nm (OD750) of approximately 0.05 in medium without thiamine. The diluted cells were then grown once more to stationary phase in medium without thiamine (about 2-3 days). These thiamine-depleted cells were used to inoculate cultures for growth studies in medium without thiamine Wildtype cells were grown in medium with glucose as the carbon source (with or without thiamine) and positive clones with the native transit peptide Coccomyxa C-169 THIC construct were grown in medium with sucrose as the sole carbon source. […]

[7] = system: Dunaliella salina; conditions: 60 mg/L chloramphenicol; cited from earlier work
[8] = system: Haematococcus pluvialis; conditions: 5 μM norflurazon; cited from earlier work
[9] = system: Gonium pectorale; conditions: 0.06 ug/ml paromomycin; cited from earlier work
[10] = system: Chlamydomonas reinhardtii; conditions: 90 ug/ml spectinomycin; cited from earlier work
[11] = system: Cylindrotheca fusiformis; conditions: 1 mg/ml zeocin; cited from earlier work
[12] = system: Nannochloropsis sp. W2J3B; conditions: 2 ug/ml zeocin; cited from earlier work
[13] = system: Phaeodactylum tricornutum; conditions: 50 ug/ml zeocin; cited from earlier work
[14] = system: Volvox carteri; conditions: 1.5 ug/ml zeocin; cited from earlier work
[15] = system: Thalassiosira pseudonana; conditions: 10 ug/ml nourseothricin; cited from earlier work
[16] = system: Chaetoceros sp.; conditions: 500 ug/ml nourseothricin; cited from earlier work
[17] = system: Closterium peracerosum-strigosum-littorale complex; conditions: 3 ug/ml phleomycin; cited from earlier work
[18] = system: Dunaliella tertiolecta; conditions: 1 mg/L phleomycin; cited from earlier work
[19] = system: Prototheca moriformis (UTEX 1435); experiment: cDNA abundance by real-time RT-PCR under nitrogen depletion; type: cell-based; conditions: after 24 hours of culture in low nitrogen medium
Method in brief: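 Cells were grown 48 hours under nitrogen-replete conditions, and nitrogen in the medium was fully depleted after about 24 hours of culture. Reserved total RNA was reverse-transcribed and assayed by real-time RT-PCR with 68 cDNA-specific primer sets. The value is fold increase in cDNA abundance after 24 hours in low-nitrogen medium.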

[20] = system: Prototheca moriformis (UTEX 1435); experiment: Steady state thioesterase mRNA level by real-time RT-PCR (promoter testing, normalized to cd189); conditions: low nitrogen medium

## CN[C@@H]1[C@@H](O)[C@@H](O[C@@H]2[C@@H](O)[C@H](O[C@H]3O[C@H]([C@@H](C)O)[C@@H](O)[C@H](O)[C@H]3N)[C@@H](N)C[C@H]2N)OC[C@]1(C)O [G418]
[1]
  propagation of untransformed cells in medium comprising the agent: unable to be propagated
[2]
  propagation of untransformed cells in medium comprising the agent: unable to be propagated
[3]
  propagation of untransformed cells in medium comprising the agent: unable to propagate
[4]
  propagation of untransformed cells in medium comprising the agent: unable to propagate
[5]
  propagation of untransformed cells in medium comprising the agent: unable to be propagated

## Cc1ncc(CN)c(N)n1 [PYR, 2-methyl-4-amino-5-(aminomethyl)pyrimidine]
[6]
  thiamine pyrophosphate production / growth without thiamine with precursor: can only produce thiamine pyrophosphate (TPP) if the PYR precursor is provided

## O=C(N[C@H](CO)[C@H](O)c1ccc([N+](=O)[O-])cc1)C(Cl)Cl [chloramphenicol]
[7]
  propagation of untransformed cells in medium comprising the agent: unable to propagate

## CNc1cnn(-c2cccc(C(F)(F)F)c2)c(=O)c1Cl [norflurazon]
[8]
  propagation of untransformed cells in medium comprising the agent: unable to propagate

## NC[C@@H]1O[C@H](O[C@H]2[C@@H](O)[C@H](O[C@@H]3[C@@H](O)[C@H](N)C[C@H](N)[C@H]3O[C@H]3O[C@H](CO)[C@@H](O)[C@H](O)[C@H]3N)O[C@@H]2CO)[C@H](N)[C@@H](O)[C@@H]1O [paromomycin]
[9]
  propagation of untransformed cells in medium comprising the agent: unable to propagate

## CN[C@@H]1[C@H](O)[C@H](NC)[C@H]2O[C@@]3(O)C(=O)C[C@@H](C)O[C@H]3O[C@@H]2[C@H]1O [spectinomycin]
[10]
  propagation of untransformed cells in medium comprising the agent: unable to propagate

## Cc1c(N)nc([C@H](CC(N)=O)NC[C@H](N)C(N)=O)nc1C(=O)N[C@H](C(=O)N[C@H](C)[C@@H](O)[C@H](C)C(=O)N[C@H](C(=O)NCCC1=N[C@@H](c2nc(C(=O)NCCCCN=C(N)N)cs2)CS1)[C@@H](C)O)[C@@H](O[C@@H]1O[C@@H](CO)[C@@H](O)[C@H](O)[C@@H]1O[C@H]1O[C@H](CO)[C@@H](O)[C@H](OC(N)=O)[C@@H]1O)c1cnc[nH]1 [zeocin]
[11]
  propagation of untransformed cells in medium comprising the agent: unable to propagate
[12]
  propagation of untransformed cells in medium comprising the agent: unable to propagate
[13]
  propagation of untransformed cells in medium comprising the agent: unable to propagate
[14]
  propagation of untransformed cells in medium comprising the agent: unable to be propagated

## nourseothricin
[15]
  propagation of untransformed cells in medium comprising the agent: unable to propagate
[16]
  propagation of untransformed cells in medium comprising the agent: unable to propagate

## phleomycin
[17]
  propagation of untransformed cells in medium comprising the agent: unable to propagate
[18]
  propagation of untransformed cells in medium comprising the agent: unable to be propagated

B1: Amt02-Ammonium transporter 02 promoter/5′UTR: putative nitrogen-regulated promoter/5′UTR, SEQ ID NO: 61 (nucleic acid, listed as Prototheca moriformis)
DNA: TCACCAGCGGACAAAGCACCGGTGTATCAGGTCCGTGTCATCCACTCTAAAGAGCTCGACTACGACCTACTGATGGCCCTAGATTCTTCATCAAAAACGCCTGAGACACTTGCCCAGGATTGAAACTCCCTGAAGGGACCACCAGGGGCCCTGAGTTGTTCCTTCCCCCCGTGGCGAGCTGCCAGCCAGGCTGTACCTGTGATCGGGGCTGGCGGGAAAACAGGCTTCGTGTGCTCAGGTTATGGGAGGTGCAGGACAGCTCATTAAACGCCAACAATCGCACAATTCATGGCAAGCTAATCAGTTATTTCCCATTAACGAGCTATAATTGTCCCAAAATTCTGGTCTACCGGGGGTGATCCTTCGTGTACGGGCCCTTCCCTCAACCCTAGGTATGCGCACATGCGGTCGCCGCGCAACGCGCGCGAGGGCCGAGGGTTTGGGACGGGCCGTCCCGAAATGCAGTTGCACCCGGATGCGTGGCACCTTTTTTGCGATAATTTATGCAATGGACTGCTCTGCAAAATTCTGGCTCTGTCGCCAACCCTAGGATCAGCGGTGTAGGATTTCGTAATCATTCGTCCTGATGGGGAGCTACCGACTGCCCTAGTATCAGCCCGACTGCCTGACGCCAGCGTCCACTTTTGTGCACACATTCCATTCGTGCCCAAGACATTTCATTGTGGTGCGAAGCGTCCCCAGTTACGCTCACCTGATCCCCAACCTCCTTATTGTTCTGTCGACAGAGTGGGCCCAGAGGCCGGTCGCAGCC
[19]
  Fold increased (cDNA abundance): 10.76
[20]
  steady state C. camphora thioesterase mRNA level relative to control (C. reinhardtii beta tubulin promoter): up to three

B2: Aat04-Amino acid transporter 04 promoter/5′UTR: putative nitrogen-regulated promoter/5′UTR, SEQ ID NO: 65 (nucleic acid, listed as Prototheca moriformis)
DNA: CGCGTGGAGCGGTGCGTGCGGATGCCGCGCGCCTGCCAAGGCCTTTTGTATGCCTGGCCTGGGAAGTTTCCTGACTGAAGCATCTTCAAGATGCTCTCTCACGACCAGCGACACCAACACCGTCACTTTTTGCCCCTCCTGCCGCAGGTGCCACTTTCTACTTTGACGTCTTCTCCAGGCGGTACATTGCGGGACTGAGCGCCAATTCGGCCAAGAACAGCGCTGTCGACTTGAGGAGGCAGGGGTCCGTCGACTCTGCCGAGTGACACGCCTTCGACCCGACTGTACTACGGCCTGCTGAAGAGTGGGTCTCGCCGGCCGGCGTGACCGGCCCTGTGCCCACAATCGACCATCTATTCGCTCCTTGTCATCTGGCGCCGTCAATTGCCCGCGACTTGACGGCAACTGGCTCGATCGAGTCGTATTGAAAAAGCACGTTTTGTCCTACAGGGCCGCGGTCCGTTACCAACGTGGTTCTCGTTAGGTTTTCGTCGGGCGGTGGTGCGCGAACTGTCCGATGCCATCCCGGCAAACCCCAGCAAGGTCGCCAGTCTGGTTCTGACGCAATAGAGTGCGTTTTGGGCCAGTCTAAAAATTCGTCTGGCATGACGTGGCTCCACATCGTACCCGGAGCCTGCCTTGGTAATGTGAGGCACCGGTGCCAACTCCATTATGGCAGGCATCGAGCGCGCAGGTGAGTACATGACCTTCCGTGAATTGGGAAGGCGAGCTTGTGTAACGCCTGCGATCGTGCCAGTGAGGCATCGTAAACTCAAAATATTTTGTAGAAAGTGTCTGATGCCTGGTGAGGCTGCGTAGGGCAAGGGCAAGCCCTTGGCAGATGGGTAATGGGTCCGGACCTCACAACAGCAACCCCGCGTCCCCCTTAGGGCCCCTGAGGCTCGATGGCAGGGCCAGCGAGCCCGCGGCCAAAGGGCGCCATCCCACGGTCGCCCAACGACTCCACGGGTCCTATACCTCATCTTGAATGGCACTAAAAACTATAGAATATCGGGCACTGGTGGGCGTCTGGGGTACAGCTGGCCGAGCGCAGTGGCAAACCCTAGGTCCCGCCTCAAGGGCGATTCCCGGGTCAATGACACGCAAGCAAGATCACATGGCGCGGTCCGCCTCGCGGCTCCACACCCAGGCCCTAGTTTCGCAACCCATAAATATCGCCCCGATACCATCATAAGCCAGCAAATAATTTTTTATCAGAGTTCCAAACCTCCTCAGCTGTGGGAAACCAGCCCACTCTGAACG
[19]
  Fold increased (cDNA abundance): 10.95
[20]
  steady state C. camphora thioesterase mRNA level relative to control (C. reinhardtii beta tubulin promoter): up to five
